Columns and labels:
Format in all cases: in vivo
[1] = test system: barnyardgrass (Echinochloa crus-galli); test: Test A preemergence; settings: Echinochloa crus-galli, pre-emergence, 240 h, 0 to 100 scale where 0 is no effect and 100 is complete control, read-out: Barnyardgrass plant response rating; for pest or weed control at 31 g/ha: 31 g ai/ha, Preemergence; for pest or weed control at 125 g/ha: 125 g ai/ha, preemergence, visual injury rating, approximately 10 d
Procedure, shortened: (§1)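 Visual injury, scored on a 0–100 scale relative to untreated controls, was recorded about 10 d after application. Treatments were a preemergence soil spray over planted seeds or a postemergence spray on plants at the one- to two-leaf stage, 2 to 10 cm tall, all in loam soil–sand blend in the greenhouse.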

[2] = test system: ragweed (common ragweed, Ambrosia elatior); test: Test A preemergence; settings: Ambrosia artemisiifolia, pre-emergence, 240 h, 0 to 100 scale where 0 is no effect and 100 is complete control, read-out: Ragweed plant response rating; for pest or weed control at 31 g/ha: 31 g ai/ha, Preemergence; for pest or weed control at 125 g/ha: 125 g ai/ha, preemergence, visual injury rating, approximately 10 d
Procedure, shortened: as §1

[3] = test system: giant foxtail (Setaria faberii); test: Test A preemergence; settings: Setaria faberi, pre-emergence, 240 h, 0 to 100 scale where 0 is no effect and 100 is complete control, read-out: Foxtail, Giant plant response rating; for pest or weed control at 31 g/ha: 31 g ai/ha, Preemergence; for pest or weed control at 125 g/ha: 125 g ai/ha, preemergence, visual injury rating, approximately 10 d
Procedure, shortened: as §1

[4] = test system: pigweed (Amaranthus retroflexus); test: Test A preemergence; settings: Amaranthus retroflexus, pre-emergence, 240 h, 0 to 100 scale where 0 is no effect and 100 is complete control, read-out: Pigweed plant response rating; for pest or weed control at 31 g/ha: 31 g ai/ha, Preemergence; for pest or weed control at 125 g/ha: 125 g ai/ha, preemergence, visual injury rating, approximately 10 d
[5] = test system: ryegrass, Italian (Italian ryegrass, Lolium multiflorum); test: Test A preemergence; settings: Lolium multiflorum, pre-emergence, 240 h, 0 to 100 scale where 0 is no effect and 100 is complete control, read-out: Ryegrass, Italian plant response rating; for pest or weed control at 31 g/ha: 31 g ai/ha, Preemergence; for pest or weed control at 125 g/ha: 125 g ai/ha, preemergence, visual injury rating, approximately 10 d
Procedure, shortened: as §1

Kochia (Kochia scoparia) [6] = test: Test A preemergence; settings: Bassia scoparia, pre-emergence, 240 h, 0 to 100 scale where 0 is no effect and 100 is complete control, read-out: Kochia plant response rating; for pest or weed control at 31 g/ha: 31 g ai/ha, Preemergence; for pest or weed control at 125 g/ha: 125 g ai/ha, preemergence, visual injury rating, approximately 10 d
Procedure, shortened: as §1

[7] = test system: barnyardgrass (Echinochloa crus-galli); test: Test B flooded paddy test; settings: Echinochloa crus-galli, 250 g ai/ha, Flood; 0 to 100 scale where 0 is no effect and 100 is complete control; read-out: Barnyardgrass plant response rating
Procedure, shortened: (§2)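 Visual ratings (0 none to 100 complete control) are relative to untreated plants, taken 13–15 d after treatment in a greenhouse. Test material went straight into floodwater standing 3 cm above the soil, kept constant, on plants at the 2-leaf stage.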

[8] = test system: ducksalad (Heteranthera limosa); test: Test B flooded paddy test; settings: Heteranthera limosa, 250 g ai/ha, Flood; 0 to 100 scale where 0 is no effect and 100 is complete control; read-out: Ducksalad plant response rating
Procedure, shortened: as §2

[9] = test system: sedge, umbrella (small-flower umbrella sedge, Cyperus difformis); test: Test B flooded paddy test; settings: Cyperus difformis, 250 g ai/ha, Flood; 0 to 100 scale where 0 is no effect and 100 is complete control; read-out: Sedge, Umbrella plant response rating
Procedure, shortened: as §2

rice (Oryra sativa) = test: Test B flooded paddy test; settings: Oryza sativa, 250 g ai/ha, Flood; 0 to 100 scale where 0 is no effect and 100 is complete control; read-out: Rice plant response rating
Procedure, shortened: as §2

[10] = test system: barnyardgrass (Echinochloa crus-galli); test: Test A postemergence; settings: Echinochloa crus-galli, post-emergence, 240 h, Postemergence; for pest or weed control at 125 g/ha: 125 g ai/ha, visual rating about 10 d after treatment, read-out: Barnyardgrass plant response rating (0 to 100 scale, 0 no effect, 100 complete control); for pest or weed control at 31 g/ha: 31 g ai/ha, 0 is no effect, 100 is complete control, read-out: Barnyardgrass plant response rating (0 to 100 scale)
Procedure, shortened: as §1

[11] = test system: blackgrass (Alopecurus myosuroides); test: Test A postemergence; settings: Alopecurus myosuroides, post-emergence, 240 h, Postemergence, read-out: Blackgrass plant response rating (0 to 100 scale); for pest or weed control at 125 g/ha: 125 g ai/ha, visual rating about 10 d after treatment; for pest or weed control at 31 g/ha: 31 g ai/ha, 0 is no effect, 100 is complete control
Procedure, shortened: as §1

[12] = test system: ragweed (common ragweed, Ambrosia elatior); test: Test A postemergence; settings: Ambrosia artemisiifolia, post-emergence, 240 h, Postemergence, read-out: Ragweed plant response rating (0 to 100 scale); for pest or weed control at 125 g/ha: 125 g ai/ha, visual rating about 10 d after treatment; for pest or weed control at 31 g/ha: 31 g ai/ha, 0 is no effect, 100 is complete control
Procedure, shortened: as §1

[13] = test system: giant foxtail (Setaria faberii); test: Test A postemergence; settings: Setaria faberi, post-emergence, 240 h, Postemergence, read-out: Foxtail, Giant plant response rating (0 to 100 scale); for pest or weed control at 125 g/ha: 125 g ai/ha, visual rating about 10 d after treatment; for pest or weed control at 31 g/ha: 31 g ai/ha, 0 is no effect, 100 is complete control
Procedure, shortened: as §1

[14] = test system: wheat (Triticum aestivum); test: Test A postemergence; settings: Triticum aestivum, post-emergence, 240 h, Postemergence, read-out: Wheat plant response rating (0 to 100 scale); for plant injury at 125 g/ha: 125 g ai/ha, visual rating about 10 d after treatment; for plant injury at 31 g/ha: 31 g ai/ha, 0 is no effect, 100 is complete control
Procedure, shortened: as §1

[15] = test system: pigweed (Amaranthus retroflexus); test: Test A postemergence; settings: Amaranthus retroflexus, post-emergence, 240 h, Postemergence, read-out: Pigweed plant response rating (0 to 100 scale); for pest or weed control at 125 g/ha: 125 g ai/ha, visual rating about 10 d after treatment; for pest or weed control at 31 g/ha: 31 g ai/ha, 0 is no effect, 100 is complete control
Procedure, shortened: as §1

corn (Zea mays) = test: Test A postemergence; settings: Zea mays, post-emergence, 240 h, Postemergence, read-out: Corn plant response rating (0 to 100 scale); for plant injury at 125 g/ha: 125 g ai/ha, visual rating about 10 d after treatment; for plant injury at 31 g/ha: 31 g ai/ha, 0 is no effect, 100 is complete control
Procedure, shortened: as §1

[16] = test system: ryegrass, Italian (Italian ryegrass, Lolium multiflorum); test: Test A postemergence; settings: Lolium multiflorum, post-emergence, 240 h, Postemergence, read-out: Ryegrass, Italian plant response rating (0 to 100 scale); for pest or weed control at 125 g/ha: 125 g ai/ha, visual rating about 10 d after treatment; for pest or weed control at 31 g/ha: 31 g ai/ha, 0 is no effect, 100 is complete control
Procedure, shortened: as §1

Kochia (Kochia scoparia) [17] = test: Test A postemergence; settings: Bassia scoparia, post-emergence, 240 h, Postemergence, read-out: Kochia plant response rating (0 to 100 scale); for pest or weed control at 125 g/ha: 125 g ai/ha, visual rating about 10 d after treatment; for pest or weed control at 31 g/ha: 31 g ai/ha, 0 is no effect, 100 is complete control
Procedure, shortened: as §1

[18] = test system: Galium (catchweed bedstraw, Galium aparine); test: Test A postemergence; settings: Galium, post-emergence, 240 h, Postemergence, read-out: Galium plant response rating (0 to 100 scale); for pest or weed control at 125 g/ha: 125 g ai/ha, visual rating about 10 d after treatment; for pest or weed control at 31 g/ha: 31 g ai/ha, 0 is no effect, 100 is complete control
Procedure, shortened: as §1

For `CN1C[C@H](c2csc3c2CCOC3)[C@@H](C(=O)Nc2cccc(F)c2F)C1=O` [Compound 1268], the pest or weed control at 31 g/ha [1] was 90%, the pest or weed control at 125 g/ha [1] was 90% and the pest or weed control at 31 g/ha [2] was 0%. It also gave a pest or weed control at 125 g/ha [2] of 0%, a pest or weed control at 31 g/ha [3] of 70% and a pest or weed control at 125 g/ha [3] of 90%. It also gave a pest or weed control at 31 g/ha [4] of 0%, a pest or weed control at 125 g/ha [4] of 0% and a pest or weed control at 31 g/ha [5] of 0%. It also gave a pest or weed control at 125 g/ha [5] of 20%, a pest or weed control at 31 g/ha (Kochia (Kochia scoparia) [6]) of 0% and a pest or weed control at 125 g/ha (Kochia (Kochia scoparia) [6]) of 0%. For the same compound, the pest or weed control at 250 g/ha [7] was 85%, the pest or weed control at 250 g/ha [8] was 95% and the pest or weed control at 250 g/ha [9] was 0%. It also gave a pest or weed control at 250 g/ha (rice (Oryra sativa)) of 20%, a pest or weed control at 125 g/ha [10] of 90% and a pest or weed control at 31 g/ha [10] of 80%. The pest or weed control at 125 g/ha [11] was 0%, the pest or weed control at 31 g/ha [11] was 0% and the pest or weed control at 125 g/ha [12] was 0%. The pest or weed control at 31 g/ha [12] was 0%, the pest or weed control at 125 g/ha [13] was 90% and the pest or weed control at 31 g/ha [13] was 50%. It also gave a plant injury at 125 g/ha [14] of 0%, a plant injury at 31 g/ha [14] of 0% and a pest or weed control at 125 g/ha [15] of 0%. It also gave a pest or weed control at 31 g/ha [15] of 0%, a plant injury at 125 g/ha (corn (Zea mays)) of 0% and a plant injury at 31 g/ha (corn (Zea mays)) of 0%. The pest or weed control at 125 g/ha [16] was 20%, the pest or weed control at 31 g/ha [16] was 0% and the pest or weed control at 125 g/ha (Kochia (Kochia scoparia) [17]) was 0%. For the same compound, the pest or weed control at 31 g/ha (Kochia (Kochia scoparia) [17]) was 0%, the pest or weed control at 125 g/ha [18] was 0% and the pest or weed control at 31 g/ha [18] was 0%.

In the case of `CN1C[C@H](c2ccc(C(F)F)cc2)[C@@H](C(=O)Nc2cccnc2F)C1=O` [Compound 1274], the pest or weed control at 31 g/ha [1] is reported as 30%, the pest or weed control at 125 g/ha [1] is reported as 90% and the pest or weed control at 31 g/ha [2] is reported as 20%. It also gave a pest or weed control at 125 g/ha [2] of 80%, a pest or weed control at 31 g/ha [3] of 80% and a pest or weed control at 125 g/ha [3] of 90%. It also gave a pest or weed control at 31 g/ha [4] of 30%, a pest or weed control at 125 g/ha [4] of 70% and a pest or weed control at 31 g/ha [5] of 0%. The pest or weed control at 125 g/ha [5] was 20%, the pest or weed control at 31 g/ha (Kochia (Kochia scoparia) [6]) was 30% and the pest or weed control at 125 g/ha (Kochia (Kochia scoparia) [6]) was 70%. The pest or weed control at 250 g/ha [7] was 20%, the pest or weed control at 250 g/ha [8] was 100% and the pest or weed control at 250 g/ha [9] was 0%. The pest or weed control at 250 g/ha (rice (Oryra sativa)) was 0%, the pest or weed control at 125 g/ha [10] was 90% and the pest or weed control at 31 g/ha [10] was 50%. It also gave a pest or weed control at 125 g/ha [11] of 30%, a pest or weed control at 31 g/ha [11] of 0% and a pest or weed control at 125 g/ha [12] of 30%. It also gave a pest or weed control at 31 g/ha [12] of 0%, a pest or weed control at 125 g/ha [13] of 90% and a pest or weed control at 31 g/ha [13] of 50%. The plant injury at 125 g/ha [14] was 60%, the plant injury at 31 g/ha [14] was 20% and the pest or weed control at 125 g/ha [15] was 20%. The pest or weed control at 31 g/ha [15] was 0%, the plant injury at 125 g/ha (corn (Zea mays)) was 30% and the plant injury at 31 g/ha (corn (Zea mays)) was 30%. It also gave a pest or weed control at 125 g/ha [16] of 20%, a pest or weed control at 31 g/ha [16] of 0% and a pest or weed control at 125 g/ha (Kochia (Kochia scoparia) [17]) of 70%. It also gave a pest or weed control at 31 g/ha (Kochia (Kochia scoparia) [17]) of 50%, a pest or weed control at 125 g/ha [18] of 60% and a pest or weed control at 31 g/ha [18] of 50%.

From US12077503B2, “Substituted cyclic amides and their use as herbicides” (FMC CORPORATION, priority 2015, dated 2024)
